Patent US9067943B2, “[1,2,3]triazolo[4,5-D]pyrimidine derivatives” (priority 2011, dated 2015)
Read-outs that look alike come from different tables or passages of the source.

Experiments:
human CB2 receptors = target: T1, human CB2 receptors (Homo sapiens, UniProt P34972); experiment: cAMP assay; assay type: cell-based
T1 construct: expressed in transfected cells; host or cells: CHO cells
Summary of the method: (§1)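 CHO cells expressing human CB1 or CB2 were preincubated 30 min at 30 °C in Krebs Ringer bicarbonate buffer with 1 mM IBMX, then exposed to compounds for 30 min at 30 °C. cAMP was measured by time-resolved FRET against a cAMP standard curve, and EC50 values were derived.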

human CB1 receptors = target: T2, human CB1 receptors (Homo sapiens, UniProt P21554); experiment: cAMP assay; assay type: cell-based
T2 construct: expressed in transfected cells; host or cells: CHO cells
Summary of the method: as §1

[1] = functional cAMP assay, CHO cells expressing human CB2, read-out: human CB2 EC50

T2 sequence (P21554 whole entry): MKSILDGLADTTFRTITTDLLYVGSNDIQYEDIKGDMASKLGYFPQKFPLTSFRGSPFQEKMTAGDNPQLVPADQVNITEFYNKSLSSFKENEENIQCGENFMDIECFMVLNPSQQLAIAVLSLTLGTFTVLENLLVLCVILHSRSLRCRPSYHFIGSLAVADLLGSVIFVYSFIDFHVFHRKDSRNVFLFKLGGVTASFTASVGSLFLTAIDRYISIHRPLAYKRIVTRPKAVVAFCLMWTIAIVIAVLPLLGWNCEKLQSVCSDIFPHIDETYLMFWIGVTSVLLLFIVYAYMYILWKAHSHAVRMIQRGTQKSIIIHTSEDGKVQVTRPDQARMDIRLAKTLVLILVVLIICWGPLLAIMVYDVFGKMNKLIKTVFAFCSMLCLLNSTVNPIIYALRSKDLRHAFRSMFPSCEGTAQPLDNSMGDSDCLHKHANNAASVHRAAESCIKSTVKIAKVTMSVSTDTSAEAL
T1 sequence (P34972 whole entry): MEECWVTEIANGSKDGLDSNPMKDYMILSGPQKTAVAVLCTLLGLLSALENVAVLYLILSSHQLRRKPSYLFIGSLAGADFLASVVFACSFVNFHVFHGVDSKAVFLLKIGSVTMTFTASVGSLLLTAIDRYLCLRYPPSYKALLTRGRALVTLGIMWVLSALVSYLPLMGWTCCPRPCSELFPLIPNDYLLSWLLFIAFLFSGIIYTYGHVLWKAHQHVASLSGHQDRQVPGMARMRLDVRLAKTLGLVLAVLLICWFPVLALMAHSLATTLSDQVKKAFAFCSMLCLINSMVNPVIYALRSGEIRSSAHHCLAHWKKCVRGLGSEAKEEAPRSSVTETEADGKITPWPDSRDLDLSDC

SMILES | EC50 (human CB2 receptors) | EC50 (human CB1 receptors) | EC50 (human CB2 receptors; [1])
Cc1nnc(Cn2nc3nc(C(C)(C)C)nc(N4CCC(F)(F)C4)c3n2)n1C [Example 83, 5-tert-Butyl-7-(3,3-difluoro-pyrrolidin-1-yl)-2-(4,5-dimethyl-4H-[1,2,4]triazol-3-ylmethyl)-2H-[1,2,3]triazolo[4,5-d]pyrimidine] | 0.0061 µM | > 10 µM | –
Cc1c(Cn2nc3nc(C(C)(C)C)nc(N4CCC(F)(F)C4)c3n2)ccc[n+]1[O-] [Example 84, 5-tert-Butyl-7-(3,3-difluoro-pyrrolidin-1-yl)-2-(2-methyl-1-oxy-pyridin-3-ylmethyl)-2H-[1,2,3]triazolo[4,5-d]pyrimidine] | 0.094 µM | > 10 µM | –
CC(C)(C)c1nc(N2CC[C@H](O)C2)c2nn(Cc3nccc(Cl)c3Cl)nc2n1 [Example 85, (S)-1-[5-tert-Butyl-2-(3,4-dichloro-pyridin-2-ylmethyl)-2H-[1,2,3]triazolo[4,5-d]pyrimidin-7-yl]-pyrrolidin-3-ol] | 0.0102 µM | > 10 µM | –
Cc1nc(Cn2nc3nc(C(C)(C)C)nc(N4CC[C@H](O)C4)c3n2)no1 [Example 86, (S)-1-[5-tert-Butyl-2-(5-methyl-[1,2,4]oxadiazol-3-ylmethyl)-2H-[1,2,3]triazolo[4,5-d]pyrimidin-7-yl]-pyrrolidin-3-ol] | 0.0522 µM | > 10 µM | –
Cc1nnc(Cn2nc3nc(C(C)(C)C)nc(N4CC[C@H](O)C4)c3n2)o1 [Example 87, (S)-1-[5-tert-Butyl-2-(5-methyl-[1,3,4]oxadiazol-2-ylmethyl)-2H-[1,2,3]triazolo[4,5-d]pyrimidin-7-yl]-pyrrolidin-3-ol] | – | > 10 µM | 0.258 µM
Cn1nnnc1Cn1nc2nc(C(C)(C)C)nc(N3CC[C@H](O)C3)c2n1 [Example 88, (S)-1-[5-tert-Butyl-2-(1-methyl-1H-tetrazol-5-ylmethyl)-2H-[1,2,3]triazolo[4,5-d]pyrimidin-7-yl]-pyrrolidin-3-ol] | 0.0521 µM | > 10 µM | –
Cn1ncnc1Cn1nc2nc(C(C)(C)C)nc(N3CC[C@H](O)C3)c2n1 [Example 89, (S)-1-[5-tert-Butyl-2-(2-methyl-2H-[1,2,4]triazol-3-ylmethyl)-2H-[1,2,3]triazolo[4,5-d]pyrimidin-7-yl]-pyrrolidin-3-ol] | – | > 10 µM | 0.372 µM
Cn1nncc1Cn1nc2nc(C(C)(C)C)nc(N3CC[C@H](O)C3)c2n1 [Example 90, (S)-1-[5-tert-Butyl-2-(3-methyl-3H-[1,2,3]triazol-4-ylmethyl)-2H-[1,2,3]triazolo[4,5-d]pyrimidin-7-yl]-pyrrolidin-3-ol] | 0.0407 µM | > 10 µM | –
Cc1cc(Cn2nc3nc(C(C)(C)C)nc(N4CC[C@H](O)C4)c3n2)n(C)n1 [Example 91, (S)-1-[5-tert-Butyl-2-(2,5-dimethyl-2H-pyrazol-3-ylmethyl)-2H-[1,2,3]triazolo[4,5-d]pyrimidin-7-yl]-pyrrolidin-3-ol] | – | > 10 µM | 0.124 µM
CC(C)(C)c1nc(N2CCC(F)(F)C2)c2nn(Cc3nnnn3C3CC3)nc2n1 [Example 92, 5-tert-Butyl-2-(1-cyclopropyl-1H-tetrazol-5-ylmethyl)-7-(3,3-difluoro-pyrrolidin-1-yl)-2H-[1,2,3]triazolo[4,5-d]pyrimidine] | 0.005 µM | 1.58 µM | –
CC(C)(C)c1nc(N2CC[C@H](O)C2)c2nn(Cc3cccnc3Nc3ccc([N+](=O)[O-])c4nonc34)nc2n1 [Example 93, (S)-1-{5-tert-Butyl-2-[2-(7-nitro-benzo[1,2,5]oxadiazol-4-ylamino)-pyridin-3-ylmethyl]-2H-[1,2,3]triazolo[4,5-d]pyrimidin-7-yl}-pyrrolidin-3-ol] | – | > 10 µM | 0.27 µM
CC(C)(C)c1nc(N2CC[C@H](O)C2)c2nn(Cc3nnnn3C3CC3)nc2n1 [Example 94, (S)-1-[5-tert-Butyl-2-(1-cyclopropyl-1H-tetrazol-5-ylmethyl)-2H-[1,2,3]triazolo[4,5-d]pyrimidin-7-yl]-pyrrolidin-3-ol] | – | > 10 µM | 0.251 µM
Cc1nc(Cn2nc3nc(C(C)(C)C)nc(N4CC[C@H](O)C4)c3n2)n(C)n1 [Example 95, (S)-1-[5-tert-Butyl-2-(2,5-dimethyl-2H-[1,2,4]triazol-3-ylmethyl)-2H-[1,2,3]triazolo[4,5-d]pyrimidin-7-yl]-pyrrolidin-3-ol] | – | > 10 µM | 0.257 µM
Cc1nc(Cn2nc3nc(C(C)(C)C)nc(N4CCC(F)(F)C4)c3n2)n(C)n1 [Example 96, 5-tert-Butyl-7-(3,3-difluoro-pyrrolidin-1-yl)-2-(2,5-dimethyl-2H-[1,2,4]triazol-3-ylmethyl)-2H-[1,2,3]triazolo[4,5-d]pyrimidine] | 0.0226 µM | > 10 µM | –
CC(C)(C)c1nc(N2CC[C@H](O)[C@@H]2CO)c2nn(Cc3nnnn3C3CC3)nc2n1 [Example 97, (2S,3S)-1-[5-tert-Butyl-2-(1-cyclopropyl-1H-tetrazol-5-ylmethyl)-2H-[1,2,3]triazolo[4,5-d]pyrimidin-7-yl]-2-hydroxymethyl-pyrrolidin-3-ol] | – | > 10 µM | 0.144 µM
Cc1nonc1Cn1nc2nc(C(C)(C)C)nc(N3CC[C@H](O)[C@@H]3CO)c2n1 [Example 98, (2S,3S)-1-[5-tert-Butyl-2-(4-methyl-furazan-3-ylmethyl)-2H-[1,2,3]triazolo[4,5-d]pyrimidin-7-yl]-2-hydroxymethyl-pyrrolidin-3-ol] | – | > 10 µM | 0.211 µM
Cc1nonc1Cn1nc2nc(C(C)(C)C)nc(N3CC(F)(F)C(F)(F)C3)c2n1 [Example 99, 5-tert-Butyl-2-(4-methyl-furazan-3-ylmethyl)-7-(3,3,4,4-tetrafluoro-pyrrolidin-1-yl)-2H-[1,2,3]triazolo[4,5-d]pyrimidine] | 0.0009 µM | > 10 µM | –
Cc1noc(Cn2nc3nc(C(C)(C)C)nc(N4CC(F)(F)C(F)(F)C4)c3n2)n1 [Example 100, 5-tert-Butyl-2-(3-methyl-[1,2,4]oxadiazol-5-ylmethyl)-7-(3,3,4,4-tetrafluoro-pyrrolidin-1-yl)-2H-[1,2,3]triazolo[4,5-d]pyrimidine] | 0.0046 µM | > 10 µM | –
Cc1nnc(Cn2nc3nc(C(C)(C)C)nc(N4CC(F)(F)C(F)(F)C4)c3n2)o1 [Example 101, 5-tert-Butyl-2-(5-methyl-[1,3,4]oxadiazol-2-ylmethyl)-7-(3,3,4,4-tetrafluoro-pyrrolidin-1-yl)-2H-[1,2,3]triazolo[4,5-d]pyrimidine] | 0.0157 µM | > 10 µM | –
Cn1nnnc1Cn1nc2nc(C(C)(C)C)nc(N3CC(F)(F)C(F)(F)C3)c2n1 [Example 102, 5-tert-Butyl-2-(1-methyl-1H-tetrazol-5-ylmethyl)-7-(3,3,4,4-tetrafluoro-pyrrolidin-1-yl)-2H-[1,2,3]triazolo[4,5-d]pyrimidine] | 0.0063 µM | > 10 µM | –
Cc1nnc(Cn2nc3nc(C(C)(C)C)nc(N4CC(F)(F)C(F)(F)C4)c3n2)n1C [Example 103, 5-tert-Butyl-2-(4,5-dimethyl-4H-[1,2,4]triazol-3-ylmethyl)-7-(3,3,4,4-tetrafluoro-pyrrolidin-1-yl)-2H-[1,2,3]triazolo[4,5-d]pyrimidine] | 0.0209 µM | > 10 µM | –
Cn1nncc1Cn1nc2nc(C(C)(C)C)nc(N3CC(F)(F)C(F)(F)C3)c2n1 [Example 104, 5-tert-Butyl-2-(3-methyl-3H-[1,2,3]triazol-4-ylmethyl)-7-(3,3,4,4-tetrafluoro-pyrrolidin-1-yl)-2H-[1,2,3]triazolo[4,5-d]pyrimidine] | 0.0101 µM | > 10 µM | –
Cc1nnc(Cn2nc3nc(C(C)(C)C)nc(N4CC5(COC5)C4)c3n2)n1C [Example 106, 5-tert-Butyl-2-(4,5-dimethyl-4H-[1,2,4]triazol-3-ylmethyl)-7-(2-oxa-6-aza-spiro[3.3]hept-6-yl)-2H-[1,2,3]triazolo[4,5-d]pyrimidine] | 0.0627 µM | > 10 µM | –
CC(C)(C)c1nc(N2CC3(COC3)C2)c2nn(Cc3ccccc3S(C)(=O)=O)nc2n1 [Example 107, 5-tert-Butyl-2-(2-methanesulfonyl-benzyl)-7-(2-oxa-6-aza-spiro[3.3]hept-6-yl)-2H-[1,2,3]triazolo[4,5-d]pyrimidine] | 0.0084 µM | > 10 µM | –
CC(C)(C)c1nc(N2CC3(COC3)C2)c2nn(Cc3ncccc3Cl)nc2n1 [Example 108, 5-tert-Butyl-2-(3-chloro-pyridin-2-ylmethyl)-7-(2-oxa-6-aza-spiro[3.3]hept-6-yl)-2H-[1,2,3]triazolo[4,5-d]pyrimidine] | 0.0052 µM | 0.362 µM | –
O[C@H]1CCN(c2nc(OCC(F)(F)F)nc3nn(Cc4ccccc4Cl)nc23)C1 [Example 109, (S)-1-[2-(2-Chloro-benzyl)-5-(2,2,2-trifluoro-ethoxy)-2H-[1,2,3]triazolo[4,5-d]pyrimidin-7-yl]-pyrrolidin-3-ol] | – | > 10 µM | 0.107 µM
O[C@H]1CCN(c2nc(OCC(F)(F)F)nc3nn(Cc4ccccc4C(F)(F)F)nc23)C1 [Example 110, (S)-1-[5-(2,2,2-Trifluoro-ethoxy)-2-(2-trifluoromethyl-benzyl)-2H-[1,2,3]triazolo[4,5-d]pyrimidin-7-yl]-pyrrolidin-3-ol] | 0.06 µM | > 10 µM | –
CC(C)Oc1nc(N2CC[C@H](O)C2)c2nn(Cc3ccccc3Cl)nc2n1 [Example 111, (S)-1-[2-(2-Chloro-benzyl)-5-isopropoxy-2H-[1,2,3]triazolo[4,5-d]pyrimidin-7-yl]-pyrrolidin-3-ol] | – | > 10 µM | 0.265 µM
Cn1nnnc1Cn1nc2nc(OCC(C)(C)C)nc(N3CCC(F)(F)C3)c2n1 [Example 112, 7-(3,3-Difluoro-pyrrolidin-1-yl)-5-(2,2-dimethyl-propoxy)-2-(1-methyl-1H-tetrazol-5-ylmethyl)-2H-[1,2,3]triazolo[4,5-d]pyrimidine] | 0.0309 µM | > 10 µM | –
